Reference: patent US11986000B2, “Whey protein extracts and their use as sphingomyelin source” (SOCIETE DES PRODUITS NESTLE S.A., priority 2017, dated 2024)

Experiment: Determination of total SM in raw materials and finished product by HPLC-ELSD
Conditions: analysed versus theoretical SM in infant formula powders
Description: 1.2. Determination of Total SM in Raw Materials and Finished Product by HPLC-ELSD
Calibration standard stock solution was prepared by dissolving 140 mg of certified milk lecithin and 10 mg of PG (internal standard) in 100 mL of chloroform/methanol (9/1, v/v) solution. Further dilutions of this solution was performed in chloroform/methanol (9/1, v/v) to yield six standard levels, ranging from 0.012 to 0.249 g L−1 for SM and 0.005 to 0.100 g L^−1 for PG.
Sample extraction and chromatographic analysis, including chromatography columns and detector settings, were completed according to the procedure as described by Braun et al. (2010) with the following minor modifications. […] EZChrom software package (Agilent Technologies) was used to control the chromatograph and results were analysed using OpenLab software (Agilent Technologies).
SM was identified within the certified milk lecithin based on peak location in the elution sequence, retention time and characteristic peak shape, as described by Braun et al. (2010). […] A six-point calibration curve was prepared for both SM ([…], R^2=:=::0.996) and PG (0.025-0.507 g L^−1, R^2=:=::0.996) for quantification. […] Quantification of SM was as described by Braun et al. (2010) using the following equation: […]

Stability of SM during the manufacturing processes: stable against degradation
Substance: sphingomyelin [SM]
